Experimental data reported in patent US10174021B2, “Substituted pyrazolo[1,5-A]pyridines and their use” (BAYER PHARMA AKTIENGESELLSCHAFT, priority 2014, dated 2019).
Counter-ions that a name gives are not always drawn.

System: recombinant guanylate cyclase reporter cell line
Assay: Effect on a recombinant guanylate cyclase reporter cell line
Type: cell-based
Settings: in some cases mean values from individual determinations, read-out: MEC (minimum effective concentration)
Description: B-2. Effect on a Recombinant Guanylate Cyclase Reporter Cell Line
The cellular activity of the compounds according to the invention is determined using a recombinant guanylate cyclase reporter cell line, as described in F. Wunder et al., Anal. Biochem. 339, 104-112 (2005).
Representative MEC values (MEC=minimum effective concentration) for the compounds of the invention are shown in the table below (in some cases as mean values from individual determinations): […]

SMILES	minimal effective concentration
Cc1cc(OCc2c(F)cccc2F)n2nc(C)c(-c3cn[nH]c3)c2c1 [Example 1, 7-[(2,6-Difluorobenzyl)oxy]-2,5-dimethyl-3-(1H-pyrazol-4-yl)pyrazolo[1,5-a]pyridine]	0.03 µM
CC(=O)c1cccc(-c2c(C)nn3c(OCc4c(F)cccc4F)cc(C)cc23)c1 [Example 2, 1-(3-{7-[(2,6-Difluorobenzyl)oxy]-2,5-dimethylpyrazolo[1,5-a]pyridin-3-yl}phenyl)ethanone]	0.53 µM
CC(=O)Nc1cccc(-c2c(C)nn3c(OCc4c(F)cccc4F)cc(C)cc23)c1 [Example 3, 1-(3-{7-[(2,6-Difluorobenzyl)oxy]-2,5-dimethylpyrazolo[1,5-a]pyridin-3-yl}phenyl)acetamide]	0.065 µM
Cc1cc(OCc2c(F)cccc2F)n2nc(C)c(-c3csc(CN4CCOCC4)c3)c2c1 [Example 4, 7-[(2,6-Difluorobenzyl)oxy]-2,5-dimethyl-3-[5-(morpholin-4-ylmethyl)-3-thienyl]pyrazolo[1,5-a]pyridine]	0.07 µM
Cc1cc(OCc2c(F)cccc2F)n2nc(C)c(-c3cnn(CCN4CCOCC4)c3)c2c1 [Example 5, 7-[(2,6-Difluorobenzyl)oxy]-2,5-dimethyl-3-{1-[2-(morpholin-4-yl)ethyl]-1H-pyrazol-4-yl}pyrazolo[1,5-a]pyridine]	0.07 µM
Cc1cc(OCc2c(F)cccc2F)n2nc(C)c(-c3cnn(Cc4ccccc4)c3)c2c1 [Example 6, 3-(1-Benzyl-1H-pyrazol-4-yl)-7-[(2,6-difluorobenzyl)oxy]-2,5-dimethylpyrazolo[1,5-a]pyridine]	0.1 µM
CCS(=O)(=O)c1cccc(-c2c(C)nn3c(OCc4c(F)cccc4F)cc(C)cc23)c1 [Example 7, 7-[(2,6-Difluorobenzyl)oxy]-3-[3-(ethylsulphonyl)phenyl]-2,5-dimethylpyrazolo[1,5-a]pyridine]	0.065 µM
Cc1cc(OCc2c(F)cccc2F)n2nc(C)c(-c3cnn(-c4ccc(F)cc4)c3)c2c1 [Example 8, 7-[(2,6-Difluorobenzyl)oxy]-3-[1-(4-fluorophenyl)-1H-pyrazol-4-yl]-2,5-dimethylpyrazolo[1,5-a]pyridine]	1 µM
Cc1cc(OCc2c(F)cccc2F)n2nc(C)c(-c3cnc(Cl)c(C)c3)c2c1 [Example 9, 3-(6-Chloro-5-methylpyridin-3-yl)-7-[(2,6-difluorobenzyl)oxy]-2,5-dimethylpyrazolo[1,5-a]pyridine]	3 µM
CCN(C)Cc1cccc(-c2c(C)nn3c(OCc4c(F)cccc4F)cc(C)cc23)c1 [Example 10, N-(3-{7-[(2,6-Difluorobenzyl)oxy]-2,5-dimethylpyrazolo[1,5-a]pyridin-3-yl}benzyl)-N-methylethanamine]	0.065 µM
Cc1cc(OCc2c(F)cccc2F)n2nc(C)c(-c3cccc(CN4CCCC4)c3)c2c1 [Example 11, 7-[(2,6-Difluorobenzyl)oxy]-2,5-dimethyl-3-[3-(pyrrolidin-1-ylmethyl)phenyl]pyrazolo[1,5-a]pyridine]	0.03 µM
Cc1cc(OCc2c(F)cccc2F)n2nc(C)c(-c3cccc(C(N)=O)c3)c2c1 [Example 12, 3-{7-[(2,6-Difluorobenzyl)oxy]-2,5-dimethylpyrazolo[1,5-a]pyridin-3-yl}benzamide]	0.055 µM
Cc1cc(OCc2c(F)cccc2F)n2nc(C)c(-c3cccc(NS(C)(=O)=O)c3)c2c1 [Example 13, N-(3-{7-[(2,6-Difluorobenzyl)oxy]-2,5-dimethylpyrazolo[1,5-a]pyridin-3-yl}phenyl)methansulphonamide]	0.1 µM
Cc1cc(OCc2c(F)cccc2F)n2nc(C)c(-c3cccc(N4CCCC4)c3)c2c1 [Example 14, 7-[(2,6-Difluorobenzyl)oxy]-2,5-dimethyl-3-[3-(pyrrolidin-1-yl)phenyl]pyrazolo[1,5-a]pyridine]	2 µM
Cc1cc(OCc2c(F)cccc2F)n2nc(C)c(-c3ccnc(N4CCNCC4)c3)c2c1 [Example 15, 7-[(2,6-Difluorobenzyl)oxy]-2,5-dimethyl-3-[2-(piperazin-1-yl)pyridin-4-yl]pyrazolo[1,5-a]pyridine]	0.3 µM
Cc1cc(OCc2c(F)cccc2F)n2nc(C)c(-c3cnn(CC(C)(C)N)c3)c2c1 [Example 16, 1-(4-{7-[(2,6-Difluorobenzyl)oxy]-2,5-dimethylpyrazolo[1,5-a]pyridin-3-yl}-1H-pyrazol-1-yl)-2-methylpropane-2-amine]	0.1 µM
Cc1cc(OCc2c(F)cccc2F)n2nc(C)c(-c3cc(F)ncc3F)c2c1 [Example 17, 7-[(2,6-Difluorobenzyl)oxy]-3-(2,5-difluoropyridin-4-yl)-2,5-dimethylpyrazolo[1,5-a]pyridine]	2 µM
CCOC(=O)c1cncc(-c2c(C)nn3c(OCc4c(F)cccc4F)cc(C)cc23)c1 [Example 18, Ethyl 5-{7-[(2,6-difluorobenzyl)oxy]-2,5-dimethylpyrazolo[1,5-a]pyridin-3-yl}nicotinate]	10 µM
Cc1cn2c(-c3cn[nH]c3)c(C)nc2c(OCc2c(F)cccc2F)n1 [Example 19, 8-[(2,6-Difluorobenzyl)oxy]-2,6-dimethyl-3-(1H-pyrazol-4-yl)imidazo[1,2-a]pyrazine trifluoroacetate]	0.3 µM
Cc1cn2c(-c3nc(N)nc(N)n3)c(C)nc2c(OCc2c(F)cccc2F)n1 [Example 20, 6-{8-[(2,6-Difluorobenzyl)oxy]-2,6-dimethylimidazo[1,2-a]pyrazin-3-yl}-1,3,5-triazine-2,4-diamine trifluoroacetate]	2 µM
COC(=O)CCn1cc(-c2c(C)nn3c(OCc4c(F)cccc4F)cc(C)cc23)cn1 [Example 21, Methyl 3-(4-{7-[(2,6-difluorobenzyl)oxy]-2,5-dimethylpyrazolo[1,5-a]pyridin-3-yl}-1H-pyrazol-1-yl)propanoate trifluoroacetate]	0.03 µM
Cc1cc(OCc2c(F)cccc2F)n2nc(C)c(-c3cnn(CCC(=O)O)c3)c2c1 [Example 22, 3-(4-{7-[(2,6-Difluorobenzyl)oxy]-2,5-dimethylpyrazolo[1,5-a]pyridin-3-yl}-1H-pyrazol-1-yl)propanoic acid trifluoroacetate]	0.1 µM
Cc1cc(OCc2c(F)cccc2F)n2nc(C)c(-c3cnn(CCC(=O)NC4CC4)c3)c2c1 [Example 23, N-Cyclopropyl-3-(4-{7-[(2,6-difluorobenzyl)oxy]-2,5-dimethylpyrazolo[1,5-a]pyridin-3-yl}-1H-pyrazol-1-yl)propanamide]	0.03 µM
Cc1cc(OCc2c(F)cccc2F)n2nc(C)c(-c3cnn(CCO)c3)c2c1 [Example 24, 2-(4-{7-[(2,6-Difluorobenzyl)oxy]-2,5-dimethylpyrazolo[1,5-a]pyridin-3-yl}-1H-pyrazol-1-yl)ethanol trifluoroacetate]	0.065 µM
Cc1cc(OCc2c(F)cccc2F)n2nc(C)c(-c3cnn(CCc4c(C)n[nH]c4C)c3)c2c1 [Example 25, 7-[(2,6-Difluorobenzyl)oxy]-3-{1-[2-(3,5-dimethyl-1H-pyrazol-4-yl)ethyl]-1H-pyrazol-4-yl}-2,5-dimethylpyrazolo[1,5-a]pyridine]	0.065 µM
